According to patent US20100298141A1, “SUBSTITUTED PYRIDINE N-OXIDE HERBICIDES” (E. I. DU PONT DE NEMOURS AND COMPANY, priority 2007, published 2010):

Experiments:
crabgrass = test: Test C pre-/postemergence test; format: in vivo, Digitaria sanguinalis; details: for Plant response rating, Crabgrass, Large: scale 0 to 100, 0 no effect, 100 complete control
Procedure, shortened: (§1)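 Test chemicals were formulated with surfactant in a non-phytotoxic solvent and sprayed both on freshly planted seeds (preemergence) and on 1- to 4-leaf plants of 2–18 cm (postemergence). Flooded-paddy pots received compound directly into 3 cm of standing water, maintained for the test.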

barnyardgrass = test: Test A pre-/postemergence greenhouse test; format: in vivo, Echinochloa crus-galli; details: for Barnyardgrass plant response rating: 0 to 100 scale
Procedure, shortened: (§2)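 Test compounds in non-phytotoxic solvent with surfactant were applied as a preemergence soil spray to seeded loam/sand pots and, concurrently, postemergence to plants at 2–10 cm, one- to two-leaf stage. About ten days in greenhouse, then injury visually rated against untreated controls.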

downy brome = test: Test C pre-/postemergence test; format: in vivo, Bromus tectorum; details: for Plant response rating, Bromegrass, Downy: scale 0 to 100, 0 no effect, 100 complete control
Procedure, shortened: as §1

redroot pigweed = test: Test A pre-/postemergence greenhouse test; format: in vivo, Amaranthus retroflexus; details: for Pigweed plant response rating: 0 to 100 scale
Procedure, shortened: as §2

velvetleaf [1] = test: Test A pre-/postemergence greenhouse test; format: in vivo, Abutilon theophrasti; details: for Velvetleaf plant response rating: 0 to 100 scale
Procedure, shortened: as §2

johnsongrass = test: Test C pre-/postemergence test; format: in vivo, Sorghum halepense; details: for Plant response rating, Johnsongrass: scale 0 to 100, 0 no effect, 100 complete control
Procedure, shortened: as §1

green foxtail = test: Test C pre-/postemergence test; format: in vivo, Setaria viridis; details: for Plant response rating, Foxtail, Green: scale 0 to 100, 0 no effect, 100 complete control
Procedure, shortened: as §1

kochia = test: Test C pre-/postemergence test; format: in vivo, Kochia scoparia; details: for Plant response rating, Kochia: scale 0 to 100, 0 no effect, 100 complete control
Procedure, shortened: as §1

eastern black nightshade = test: Test C pre-/postemergence test; format: in vivo, Solanum ptycanthum
Procedure, shortened: as §1

rice = test: Test C flooded paddy test; format: in vivo, Oryza sativa; details: Flood
Procedure, shortened: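 Greenhouse pots flooded to 3 cm above soil at time of treatment received compound via the water, which stayed at that level.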

common ragweed = test: Test C pre-/postemergence test; format: in vivo, Ambrosia elation; details: for Plant response rating, Ragweed: scale 0 to 100, 0 no effect, 100 complete control
Procedure, shortened: as §1

giant foxtail = test: Test C pre-/postemergence test; format: in vivo, Setaria faberii; details: for Plant response rating, Foxtail, Giant: scale 0 to 100, 0 no effect, 100 complete control
Procedure, shortened: as §1

lambsquarters = test: Test C pre-/postemergence test; format: in vivo, Chenopodium album; details: for Plant response rating, Lambsquarters: scale 0 to 100, 0 no effect, 100 complete control
Procedure, shortened: as §1

wild oat = test: Test C pre-/postemergence test; format: in vivo, Avena fatua; details: for Plant response rating, Oat, Wild: scale 0 to 100, 0 no effect, 100 complete control
Procedure, shortened: as §1

cocklebur = test: Test C pre-/postemergence test; format: in vivo, Xanthium strumarium; details: for Plant response rating, Cocklebur: scale 0 to 100, 0 no effect, 100 complete control
Procedure, shortened: as §1

velvetleaf [2] = test: Test C pre-/postemergence test; format: in vivo, Abutilon theophrasti; details: Postemergence; for Plant response rating, Velvetleaf: scale 0 to 100, 0 no effect, 100 complete control
Procedure, shortened: as §1

Surinam grass = test: Test C pre-/postemergence test; format: in vivo, Brachiaria decumbens; details: for Surinam Grass plant response rating: preemergence, scale 0 (no effect) to 100 (complete control); for Plant response rating, Surinam Grass: scale 0 to 100, 0 no effect, 100 complete control
Procedure, shortened: as §1

[3] = 31 g ai/ha, Preemergence, scale 0 to 100
[4] = 62 g ai/ha, preemergence, scale 0 (no effect) to 100 (complete control)
[5] = preemergence, 125 g ai/ha, scale 0 (no effect) to 100 (complete control)
[6] = Postemergence, 125 g ai/ha, 0 is no effect, 100 is complete control
[7] = Postemergence, 500 g ai/ha, 0 is no effect, 100 is complete control
[8] = Preemergence, 125 g ai/ha, 0 no effect, 100 complete control
[9] = Preemergence, 500 g ai/ha, 0 to 100 scale where 0 is no effect and 100 is complete control

SMILES: Cc1cc[n+]([O-])c(S(=O)(=O)Cc2c(C(F)(F)F)nn(C)c2OC(F)F)c1 [Compound 2]
- Crabgrass, Large plant response rating (crabgrass; [3]): 70
- Crabgrass, Large plant response rating (crabgrass; [4]): 100
- Plant response rating (0 to 100), Crabgrass, Large (crabgrass; Postemergence, 31 g ai/ha): 0
- Plant response rating, Crabgrass, Large (crabgrass; Postemergence, 62 g ai/ha): 0
- Plant response rating, Crabgrass, Large (crabgrass; Postemergence, 125 g ai/ha): 0
- Plant response rating, Crabgrass, Large (crabgrass; Postemergence, 250 g ai/ha): 40
- Plant response rating (0 to 100), Crabgrass, Large (crabgrass; Preemergence, 250 g ai/ha): 100
- Crabgrass, Large plant response rating (crabgrass; [5]): 100
- Barnyardgrass plant response rating (barnyardgrass; [6]): 70
- Barnyardgrass plant response rating (barnyardgrass; [7]): 80
- Barnyardgrass plant response rating (barnyardgrass; [8]): 90
- Plant response rating, Barnyardgrass (barnyardgrass; [9]): 100
- Bromegrass, Downy plant response rating (downy brome; [3]): 0
- Bromegrass, Downy plant response rating (downy brome; [4]): 40
- Plant response rating (0 to 100), Bromegrass, Downy (downy brome; Postemergence, 31 g ai/ha): 0
- Plant response rating, Bromegrass, Downy (downy brome; Postemergence, 62 g ai/ha): 0
- Plant response rating, Bromegrass, Downy (downy brome; Postemergence, 125 g ai/ha): 0
- Plant response rating, Bromegrass, Downy (downy brome; Postemergence, 250 g ai/ha): 0
- Plant response rating (0 to 100), Bromegrass, Downy (downy brome; Preemergence, 250 g ai/ha): 45
- Bromegrass, Downy plant response rating (downy brome; [5]): 45
- Pigweed plant response rating (redroot pigweed; [6]): 100
- Pigweed plant response rating (redroot pigweed; [7]): 100
- Pigweed plant response rating (redroot pigweed; [8]): 100
- Plant response rating, Pigweed (redroot pigweed; [9]): 100
- Velvetleaf plant response rating (velvetleaf [1]; [6]): 60
- Velvetleaf plant response rating (velvetleaf [1]; [7]): 80
- Velvetleaf plant response rating (velvetleaf [1]; [8]): 70
- Plant response rating, Velvetleaf (velvetleaf [1]; [9]): 90
- Johnsongrass plant response rating (johnsongrass; [3]): 30
- Johnsongrass plant response rating (johnsongrass; [4]): 95
- Plant response rating (0 to 100), Johnsongrass (johnsongrass; Postemergence, 31 g ai/ha): 0
- Plant response rating, Johnsongrass (johnsongrass; Postemergence, 62 g ai/ha): 0
- Plant response rating, Johnsongrass (johnsongrass; Postemergence, 125 g ai/ha): 0
- Plant response rating, Johnsongrass (johnsongrass; Postemergence, 250 g ai/ha): 0
- Plant response rating (0 to 100), Johnsongrass (johnsongrass; Preemergence, 250 g ai/ha): 100
- Johnsongrass plant response rating (johnsongrass; [5]): 100
- Foxtail, Green plant response rating (green foxtail; [3]): 100
- Foxtail, Green plant response rating (green foxtail; [4]): 100
- Plant response rating (0 to 100), Foxtail, Green (green foxtail; Postemergence, 31 g ai/ha): 0
- Plant response rating, Foxtail, Green (green foxtail; Postemergence, 62 g ai/ha): 0
- Plant response rating, Foxtail, Green (green foxtail; Postemergence, 125 g ai/ha): 20
- Plant response rating, Foxtail, Green (green foxtail; Postemergence, 250 g ai/ha): 50
- Plant response rating (0 to 100), Foxtail, Green (green foxtail; Preemergence, 250 g ai/ha): 100
- Foxtail, Green plant response rating (green foxtail; [5]): 100
- Kochia plant response rating (kochia; [3]): 100
- Kochia plant response rating (kochia; [4]): 100
- Plant response rating (0 to 100), Kochia (kochia; Postemergence, 31 g ai/ha): 0
- Plant response rating, Kochia (kochia; Postemergence, 62 g ai/ha): 0
- Plant response rating, Kochia (kochia; Postemergence, 125 g ai/ha): 5
- Plant response rating, Kochia (kochia; Postemergence, 250 g ai/ha): 5
- Plant response rating (0 to 100), Kochia (kochia; Preemergence, 250 g ai/ha): 100
- Kochia plant response rating (kochia; [5]): 100
- Nightshade plant response rating (eastern black nightshade; [3]): 98
- Nightshade plant response rating (eastern black nightshade; [4]): 100
- Plant response rating (0 to 100), Nightshade (eastern black nightshade; Preemergence, 250 g ai/ha): 100
- Nightshade plant response rating (eastern black nightshade; [5]): 100
- Plant response rating, Rice (rice; 31 g ai/ha, scale 0 to 100 (0 no effect, 100 complete control)): 0
- Plant response rating, Rice (rice; 62 g ai/ha, scale 0 to 100, 0 no effect, 100 complete control, 13 to 15 days): 10
- Plant response rating, Rice (rice; 125 g ai/ha, scale 0 to 100, 0 no effect, 100 complete control, 13 to 15 days): 45
- Plant response rating, Rice (rice; 250 g ai/ha, scale 0 to 100 (0 no effect, 100 complete control)): 70
- Ragweed plant response rating (common ragweed; [3]): 20
- Ragweed plant response rating (common ragweed; [4]): 98
- Plant response rating (0 to 100), Ragweed (common ragweed; Postemergence, 31 g ai/ha): 0
- Plant response rating (0 to 100), Ragweed (common ragweed; Postemergence, 62 g ai/ha): 0
- Plant response rating, Ragweed (common ragweed; Postemergence, 125 g ai/ha): 5
- Plant response rating, Ragweed (common ragweed; Postemergence, 250 g ai/ha): 10
- Plant response rating (0 to 100), Ragweed (common ragweed; Preemergence, 250 g ai/ha): 100
- Ragweed plant response rating (common ragweed; [5]): 100
- Foxtail, Giant plant response rating (giant foxtail; [3]): 65
- Foxtail, Giant plant response rating (giant foxtail; [4]): 90
- Plant response rating (0 to 100), Foxtail, Giant (giant foxtail; Postemergence, 31 g ai/ha): 0
- Plant response rating, Foxtail, Giant (giant foxtail; Postemergence, 62 g ai/ha): 0
- Plant response rating, Foxtail, Giant (giant foxtail; Postemergence, 125 g ai/ha): 0
- Plant response rating, Foxtail, Giant (giant foxtail; Postemergence, 250 g ai/ha): 50
- Plant response rating (0 to 100), Foxtail, Giant (giant foxtail; Preemergence, 250 g ai/ha): 100
- Foxtail, Giant plant response rating (giant foxtail; [5]): 100
- Lambsquarters plant response rating (lambsquarters; [3]): 0
- Lambsquarters plant response rating (lambsquarters; [4]): 70
- Plant response rating (0 to 100), Lambsquarters (lambsquarters; Postemergence, 31 g ai/ha): 0
- Plant response rating, Lambsquarters (lambsquarters; Postemergence, 62 g ai/ha): 0
- Plant response rating, Lambsquarters (lambsquarters; Postemergence, 125 g ai/ha): 0
- Plant response rating, Lambsquarters (lambsquarters; Postemergence, 250 g ai/ha): 0
- Plant response rating (0 to 100), Lambsquarters (lambsquarters; Preemergence, 250 g ai/ha): 100
- Lambsquarters plant response rating (lambsquarters; [5]): 100
- Oat, Wild plant response rating (wild oat; [3]): 50
- Oat, Wild plant response rating (wild oat; [4]): 65
- Plant response rating (0 to 100), Oat, Wild (wild oat; Postemergence, 31 g ai/ha): 0
- Plant response rating, Oat, Wild (wild oat; Postemergence, 62 g ai/ha): 0
- Plant response rating, Oat, Wild (wild oat; Postemergence, 125 g ai/ha): 0
- Plant response rating, Oat, Wild (wild oat; Postemergence, 250 g ai/ha): 0
- Plant response rating (0 to 100), Oat, Wild (wild oat; Preemergence, 250 g ai/ha): 95
- Oat, Wild plant response rating (wild oat; [5]): 70
- Cocklebur plant response rating (cocklebur; [3]): 0
- Cocklebur plant response rating (cocklebur; [4]): 0
- Plant response rating (0 to 100), Cocklebur (cocklebur; Postemergence, 31 g ai/ha): 0
- Plant response rating, Cocklebur (cocklebur; Postemergence, 62 g ai/ha): 0
- Plant response rating, Cocklebur (cocklebur; Postemergence, 125 g ai/ha): 0
- Plant response rating, Cocklebur (cocklebur; Postemergence, 250 g ai/ha): 10
- Plant response rating (0 to 100), Cocklebur (cocklebur; Preemergence, 250 g ai/ha): 100
- Cocklebur plant response rating (cocklebur; [5]): 70
- Plant response rating (0 to 100), Velvetleaf (velvetleaf [2]; 31 g ai/ha): 0
- Plant response rating (0 to 100), Velvetleaf (velvetleaf [2]; 62 g ai/ha): 0
- Plant response rating, Velvetleaf (velvetleaf [2]; 125 g ai/ha): 0
- Plant response rating, Velvetleaf (velvetleaf [2]; 250 g ai/ha): 5
- Surinam Grass plant response rating (Surinam grass; 62 g ai/ha): 100
- Plant response rating (0 to 100), Surinam Grass (Surinam grass; Postemergence, 31 g ai/ha): 0
- Plant response rating (0 to 100), Surinam Grass (Surinam grass; Postemergence, 62 g ai/ha): 0
- Plant response rating, Surinam Grass (Surinam grass; Postemergence, 125 g ai/ha): 0
- Plant response rating, Surinam Grass (Surinam grass; Postemergence, 250 g ai/ha): 0
- Plant response rating (0 to 100), Surinam Grass (Surinam grass; Preemergence, 250 g ai/ha): 100
- Surinam Grass plant response rating (Surinam grass; 125 g ai/ha): 100
